Assay results: patent US20170216225A1, “METHOD FOR ANTICOAGULATION” (priority 2016, published 2017)

Columns and labels:
Assay type in all cases: in vivo
mice = experiment: Tolerability of intraperitoneal IA in mice
Source text: (§1) In other words, IA is not harmful to the health of mammals even at high doses.

rats = experiment: Tolerability of IA in rats; conditions: 1 mL of 30,000 ppm IA
Source text: as §1

[1] = test system: intrinsic pathway of coagulation system; experiment: Activated partial thromboplastin time (aPTT) of plasma from IA-treated mice
Description: The 5- to 6-week old male C57BL/6JNar1 mice having body weights around 20 g were purchased from National Laboratory Animal Center, Taipei, Taiwan. Coagulation system in blood is composed of intrinsic and extrinsic pathways. The intrinsic pathway is assayed by activated thromboplastin time (aPTT) and the extrinsic pathway is assayed by prothrombin time (PT). Following intraperitoneal injection of various dose of IA, plasma was obtained at different periods of time and was assayed for aPTT and PT. aPTT and PT were assayed in a Stago ST4 coagulation analyzer (ST art 4, Diagnostica Stago, France). By carbon dioxide anesthesia of mice, blood was obtained by cardiac puncture using 3.2% sodium citrate mixing with blood at a ratio of 1:9. The blood was centrifuged at 2000g/rpm for 10 minutes to get the mouse plasma, which was assayed immediately. aPTT was assayed in 4-fold dilution of aPTT r reagent using kit-provided buffer solution as diluent. In aPTT assay, 0.1 mL of plasma was kept warm for 1 min at 37° C. in a barrette of 4 cuvettes in Stago ST4 coagulation analyzer, then 0.1 mL of 4 fold-diluted aPTT reagent and one steel ball were added and waited for 180 seconds. Finally, 0.1 mL of 25 mM CaCl2 solution was added for aPTT detection. To investigate the anticoagulation effect in the intrinsic pathway of coagulation system in the IA-treated mice, the aPTT was measured at different treatment times. Mouse (n=6) was intraperitoneally injected with 1 mL of 1000 ppm ([…]) IA, blood was drawn 1 hr, 2 hr, 3 hr, and 24 hr after IA injection. Ten mice were injected with vehicle (n=10) and were served as controls. Then, the aPTT of each group was measured. FIG. 2A is a diagram of Table 1-1. To investigate the anticoagulation effect in the intrinsic pathway of coagulation system the IA-treated mice, the aPTT was also measured under different doses of IA. Various doses of IA (1 ppm, 10 ppm, 100 ppm, 1,000 ppm) in 1 mL, were intraperitoneally injected into different groups of mice (n=6), respectively. Plasma was separated 3 hr later. Ten mice were injected with vehicle and were served as controls. The aPTT of each group was measured. FIG. 2B is a diagram of Table 1-2.

[2] = test system: extrinsic pathway of coagulation system; experiment: Prothrombin time (PT) of plasma from IA-treated mice
Description: The 5- to 6-week old male C57BL/6JNar1 mice having body weights around 20 g were purchased from National Laboratory Animal Center, Taipei, Taiwan.
Coagulation system in blood is composed of intrinsic and extrinsic pathways. The intrinsic pathway is assayed by activated thromboplastin time (aPTT) and the extrinsic pathway is assayed by prothrombin time (PT). Following intraperitoneal injection of various dose of IA, plasma was obtained at different periods of time and was assayed for aPTT and PT. aPTT and PT were assayed in a Stago ST4 coagulation analyzer (ST art 4, Diagnostica Stago, France).
By carbon dioxide anesthesia of mice, blood was obtained by cardiac puncture using 3.2% sodium citrate mixing with blood at a ratio of 1:9. The blood was centrifuged at 2000g/rpm for 10 minutes to get the mouse plasma, which was assayed immediately.
PT was assayed in 4-fold dilution of PT reagent, composed of four parts including one part of PT reagent, one part of 25 mM CaCl solution, and two parts of sterile water. In PT assay, 0.1 mL of plasma was put into each of 4 barrette cuvette, each of which had one steel ball, and was kept at 37° C. for 1 min in Stago ST4 coagulation analyzer. Then, 0.2 mL of the diluted PT reagent was added for PT detection.
Moreover, to investigate the anticoagulation effect in the extrinsic pathway of coagulation system in the IA-treated mice, the PT was measured at different treatment times. Different groups of mice (n=6) were respectively intraperitoneally injected with 1 mL of 1000 ppm ([…]) IA, blood was drawn 1 hr, 2 hr, 3 hr, and 24 hr after IA injection. Ten mice were injected with vehicle (n=10) and were served as controls. Then, the PT of each group was measured. FIG. 3A is a diagram of Table 2-1.
To investigate the anticoagulation effect in the extrinsic pathway of coagulation system in the IA-treated mice, the PT was also measured under different doses of IA. Various doses of IA (1 ppm, 10 ppm, 100 ppm, 1,000 ppm) in 1 mL, were intraperitoneally injected into different groups of mice (n=6), respectively. Plasma was separated 3 hr later. Ten mice were injected with vehicle and were served as controls. The PT of each group was measured. FIG. 3B is a diagram of Table 2-2.

[3] = 1 mL i.p., 3 hr after injection
[4] = 1 mL of 1000 ppm (0.05 mL/kg) IA i.p., treatment time 1 hr
[5] = 1 mL of 1000 ppm (0.05 mL/kg) IA i.p., treatment time 2 hr
[6] = 1 mL of 1000 ppm (0.05 mL/kg) IA i.p., treatment time 3 hr
[7] = 1 mL of 1000 ppm (0.05 mL/kg) IA i.p., treatment time 24 hr
[8] = injected dose 1 ppm in 1 mL i.p., 3 hr after injection
[9] = injected dose 10 ppm in 1 mL i.p., 3 hr after injection
[10] = injected dose 100 ppm in 1 mL i.p., 3 hr after injection
[11] = injected dose 1000 ppm in 1 mL i.p., 3 hr after injection

For `CC(C)CCN` [IA, 3-methyl-1-butanamine], the “Tolerance of intraperitoneal injection” value (mice; BALB/C mice (20 g), 1 mL of 20,000 ppm (0.1 mL/kg) i.p.) was “could tolerate”, the “Physiological state after IA” value (mice; mice, 1 mL of 1,000 ppm (0.05 mL/kg) IA) was “normal physiological state can be maintained” and the “Physiological state after IA” value (rats) was “normal physiological state can also be maintained”. The “Lowest dose with anticoagulation effect in the intrinsic pathway (aPTT prolonged, statistical meaning)” value [1, 3] was 1 ppm, the “Mean of aPTT” value [1, 4] was 30.8 s and the “Mean of aPTT” value [1, 5] was 32.0 s. For the same compound, the “Mean of aPTT” value [1, 6] was 33.7 s, the “Mean of aPTT” value [1, 7] was 34.8 s and the “Treatment time after which aPTT prolongation has statistical meaning” value ([1]; 1 mL of 1000 ppm IA i.p.) was 1 h. The “Mean of aPTT” value [1, 8] was 33.0 s, the “Mean of aPTT” value [1, 9] was 33.0 s and the “Mean of aPTT” value [1, 10] was 33.4 s. The “Mean of aPTT” value [1, 11] was 33.7 s, the “Dose at which PT was obviously prolonged (statistical meaning)” value [2, 3] was 1000 ppm and the “Mean of PT” value [2, 4] was 11.6 s. For the same compound, the “Mean of PT” value [2, 5] was 12.2 s, the “Mean of PT” value [2, 6] was 12.6 s and the “Mean of PT” value [2, 7] was 13.2 s. The “Treatment time after which PT prolongation has statistical meaning” value ([2]; 1 mL of 1000 ppm IA i.p.) was 2 h, the “Mean of PT” value [2, 8] was 11.2 s and the “Mean of PT” value [2, 9] was 11.4 s. The “Mean of PT” value [2, 10] was 11.5 s and the “Mean of PT” value [2, 11] was 12.6 s.
